We go through 13 molecules from patent publication US20090246169A1, “INDOLOPYRIDINES AS EG5 KINESIN MODULATORS” (priority 2006, published 2009).

The subject of this test is RKO p21 colon adenocarcinoma cells, uninduced (proliferating). Kind of test: Alamar Blue cell viability assay, RKO p21 uninduced (proliferating). Type of test: cell-based. Conditions: Homo sapiens; anti-proliferative/cytotoxic activity, 72 hours, without Ponasterone A; read-out: −log EC50 [mol/l] RKO p21 uninduced (proliferating) (converted). In a few lines: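 Proliferating RKO subclones, no Ponasterone A inducer, seeded in DMEM/10% FCS and dosed after 24 h with semi-log dilutions in triplicate, 72 h at 37 °C, 5% CO2. Viability by Alamar Blue fluorescence (544/590 nm) vs untreated cells; EC50 from dose-response curves.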
For the molecule `COc1ccc2[nH]c3c(c2c1)C[C@@]1(C)C(=O)N(CCCN2CCN(C)CC2)C(=O)N1[C@@H]3c1ccccc1` (racemic) [Example 68, (3aSR, 10RS)-6-Methoxy-3a-methyl-2-[3-(4-methyl-piperazin-1-yl)-propyl]-10-phenyl-3a,4,9,10-tetrahydro-2,9,10a-triaza-cyclopenta [b]fluorene-1,3-dione], the EC50 is no more than 1000 nM. With `COc1ccc2[nH]c3c(c2c1)C[C@@]1(C)C(=O)N(CCCN2CCN(C(C)=O)CC2)C(=O)N1[C@@H]3c1ccccc1` (racemic) [Example 69, (3aSR, 10RS)-2-[3-(4-Acetyl-piperazin-1-yl)-propyl]-6-methoxy-3a-methyl-10-phenyl-3a,4,9,10-tetra-hydro-2,9,10a-triaza-cyclo-penta[b]fluorene-1,3-dione], the EC50 is no more than 1000 nM. The same measure for `COCCNCCCN1C(=O)N2[C@H](c3ccccc3)c3[nH]c4ccc(OC)cc4c3C[C@@]2(C)C1=O` (racemic) [Example 70, (3aSR, 10RS)-6-Methoxy-2-[3-(2-methoxy-ethylamino)-propyl]-3a-methyl-10-phenyl-3a,4,9,10-tetrahydro-2,9,10a-triaza-cyclopenta[b]fluorene-1,3-dione]: no more than 1000 nM; for `COc1ccc2[nH]c3c(c2c1)C[C@@]1(C)C(=O)N(CCCNC2CC2)C(=O)N1[C@@H]3c1ccccc1` (racemic) [Example 71, (3aSR, 10RS)-2-(3-Cyclo-propylamino-propyl)-6-methoxy-3a-methyl-10-phenyl-3a,4,9,10-tetrahydro-2,9,10a-triaza-cyclopenta[b] fluorene-1,3-dione]: no more than 1000 nM.

Regarding `COc1ccc2[nH]c3c(c2c1)C[C@@]1(C)C(=O)N(CCCNC2CCC2)C(=O)N1[C@@H]3c1ccccc1` (racemic) [Example 72, (3aSR, 10RS)-2-(3-Cyclo-butylamino-propyl)-6-methoxy-3a-methyl-10-phenyl-3a,4,9,10-tetrahydro-2,9,10a-triaza-cyclopenta[b] fluorene-1,3-dione], the EC50 is no more than 1000 nM. As for `CNCCCN1C(=O)N2[C@H](c3ccccc3)c3[nH]c4ccc(OC)cc4c3C[C@@]2(C)C1=O` (racemic) [Example 73, (3aSR, 10RS)-6-Methoxy-3a-methyl-2-(3-methylamino-propyl)-10-phenyl-3a,4,9,10-tetrahydro-2,9,10a-triaza-cyclopenta[b]fluorene-1,3-dione], the EC50 was no more than 1000 nM. With `COc1ccc2[nH]c3c(c2c1)C[C@@]1(C)C(=O)N(CCCNCC2CC2)C(=O)N1[C@@H]3c1ccccc1` (racemic) [Example 74, (3aSR, 10RS)-2-[3-(Cyclo-propylmethyl-amino)-propyl]-6-methoxy-3a-methyl-10-phenyl-3a,4,9,10-tetrahydro-2,9,10a-triaza-cyclopenta[b] fluorene-1,3-dione], the EC50 was no more than 1000 nM. For `COc1ccc2[nH]c3c(c2c1)C[C@@]1(C)C(=O)N(CCCNCCO)C(=O)N1[C@@H]3c1ccccc1` (racemic) [Example 75, (3aSR, 10RS)-2-[3-(2-Hydroxy-ethylamino)-propyl]-6-methoxy-3a-methyl-10-phenyl-3a,4,9,10-tetrahydro-2,9,10a-triaza-cyclopenta[b] fluorene-1,3-dione] the value was no more than 1000 nM; for `COc1ccc2[nH]c3c(c2c1)C[C@@]1(C)C(=O)N(CCCNC(C)(C)C)C(=O)N1[C@@H]3c1ccccc1` (racemic) [Example 76, (3aSR, 10RS)-2-(3-tert-Butylamino-propyl)-6-methoxy-3a-methyl-10-phenyl-3a,4,9,10-tetrahydro-2,9,10a-triaza-cyclopenta[b] fluorene-1,3-dione], no more than 1000 nM. The same measure for `C=CCNCCCN1C(=O)N2[C@H](c3ccccc3)c3[nH]c4ccc(OC)cc4c3C[C@@]2(C)C1=O` (racemic) [Example 77, (3aSR, 10RS)-2-(3-Allyl-amino-propyl)-6-methoxy-3a-methyl-10-phenyl-3a,4,9,10-tetrahydro-2,9,10a-triaza-cyclopenta[b]fluorene-1,3-dione]: no more than 1000 nM; for `COc1ccc2[nH]c3c(c2c1)C[C@@]1(C)C(=O)N(CCCN2CCCCCC2)C(=O)N1[C@@H]3c1ccccc1` (racemic) [Example 78, (3aSR, 10RS)-2-(3-Azepan-1-yl-propyl)-6-methoxy-3a-methyl-10-phenyl-3a,4,9,10-tetrahydro-2,9,10a-triaza-cyclopenta[b]fluorene-1,3-dione]: no more than 1000 nM. The same measure for `C#CC(C)NCCN1C(=O)N2[C@H](c3ccccc3)c3[nH]c4ccc(OC)cc4c3C[C@@]2(C)C1=O` (stereo partly drawn) [Example 48, (3aSR, 10RS)-6-Methoxy-3a-methyl-2-[2-(R)-1-methyl-prop-2-ynylamino)-ethyl]-10-phenyl-3a,4,9,10-tetrahydro-2,9,10a-triaza-cyclopenta [b]fluorene-1,3-dione and (3aSR, 10RS)-6-Methoxy-3a-methyl-2-[2-(S)-1-methyl-prop-2-ynylamino)-ethyl]-10-phenyl-3a,4,9,10-tetra-hydro-2,9,10a-triaza-cyclo-penta[b]fluorene-1,3-dione]: no more than 1000 nM; for `COc1ccc2[nH]c3c(c2c1)C[C@@]1(C)C(=O)N(CCCNCC(F)F)C(=O)N1[C@@H]3c1ccccc1` [Example 50, (3aS, 10R)-2-[3-(2,2-Difluoro-ethylamino)-propyl]-6-methoxy-3a-methyl-10-phenyl-3a,4,9,10-tetrahydro-2,9,10a-triaza-cyclopenta[b] fluorene-1,3-dione]: no more than 1000 nM.
